Measured values: patent US20200188361A1, “USE OF MITOCHONDRIAL ACTIVITY INHIBITORS FOR THE TREATMENT OF POOR PROGNOSIS ACUTE MYELOID LEUKEMIA” (UNIVERSITE DE MONTREAL, priority 2016, published 2020)

What was measured:
[1] = test system: Normal primitive CD34-positive cord blood cells; assay: cells; details: Homo sapiens, read-out: EC50 in normal primitive CD34-positive cord blood cells
Method: Patient cells were seeded in 384-well plates at a density of 5,000 cells in 50 μL per well. In the initial screen, compounds were added to seeded cells in serial dilutions (10 dilutions, 1:3, starting from 10 μM or 20 μM), in duplicates. Cells treated with 0.1% DMSO without additional compound were used as negative controls. Viable cell counts per well were evaluated after 6 days of culture using the CellTiterGlo® assay (Promega®) according to the manufacturer's instruction. The percent of inhibition was calculated as follows: 100−(100×(mean luminescence(compound)/mean luminescence(DMSO)); where mean-luminescence(compound) corresponds to the average of luminescent signals obtained for the compound-treated cells, and mean-luminescence(DMSO) corresponds to the average of luminescent signals obtained for the control DMSO-treated cells.

[2] = test system: HOX-med/low AML patient cells; assay: Primary chemical screen of 60 compounds, cell dose-response viability assay (CellTiterGlo, 6 days); assay type: cell-based, human; details: Homo sapiens, 144 h; primary screen; mean over HOX-med/low patient specimens; 6 days culture; top concentration 10 μM or 20 μM; read-out: MEAN EC50 HOX-med/low
Method: (§1) frozen AML mono-nucleated cells were thawed at 37° C. in Iscove's modified Dulbecco's medium (IMDM) containing 20% FBS and DNase I (100 μg/mL).
(§2) All powders were dissolved in DMSO and diluted in culture medium immediately before use. Final DMSO concentration in all conditions was 0.1%. The 60 compounds were purchased from various suppliers including Santa Cruz, Selleckchem, Calbiochem, AdooQ Bioscience, Cayman chemical and Synkinase.
(§3) Patient cells were seeded in 384-well plates at a density of 5,000 cells in 50 μL per well. In the initial screen, compounds were added to seeded cells in serial dilutions (10 dilutions, 1:3, starting from 10 μM or 20 μM), in duplicates. Cells treated with 0.1% DMSO without additional compound were used as negative controls. Viable cell counts per well were evaluated after 6 days of culture using the CellTiterGlo® assay (Promega®) according to the manufacturer's instruction.
(§4) Using high expression of HOXA9 and HOXA10 as a surrogate for the detection of HOX-network-high patient samples, the survival of HOX-high versus HOX-med/low specimens contacted with 60 inhibitors targeting receptor tyrosine kinases (RTK), members of the RAS and PI3K pathways, was assessed (FIG. 2A, Table 4).

[3] = test system: HOX-high AML patient cells; assay: as above; assay type: cell-based, human
Method: as §1, §2, §3, §4

SMILES: FC(F)(F)c1ccc(/C=C/c2nc(COc3ccc(CCCCn4ccnn4)cc3)co2)cc1 [Mubritinib, 1-(4-{4-[(2-{(E)-2-[4-(trifluoromethyl)phenyl]ethenyl}-1,3-oxazol-4-yl)methoxy]phenyl}butyl)-1H-1,2,3-triazole]
- EC50 [1]: > 375 nM
- EC50 [2]: 1380 nM
- EC50 ([3]; Homo sapiens, 144 h, primary screen, mean over HOX-high patient specimens, 6 days culture, top concentration 10 μM or 20 μM, read-out: MEAN EC50 HOX-high): 315 nM
- difference in sensitivity of HOX-high versus HOX-med/low patient cells ([3]; primary screen (FIG. 2B)): significantly more sensitive
- FOLD CHANGE High/Med-low ([3]; ratio of mean EC50 HOX-high to mean EC50 HOX-med/low): 0.2
